In ChEMBL document CHEMBL6134907, “Synthesis of 5,9- and 5,8-Diaminoalkoxy Substituted Benzophenanthridinone Analogues as Tyrosyl-DNA Phosphodiesterase 1 Inhibitors and Their Radiosensitizing Activity” (J Med Chem, 2025):
Calls of active or inactive are those of the source. The rule behind the calls is not given here.

Columns and labels:
[1] = biological target: T1, Tyrosyl-DNA phosphodiesterase 1 (Homo sapiens, UniProt Q9NUW8); assay: Inhibition of recombinant TDP1 (unknown origin) assessed as substrate cleavage using 5'-Cy5-GATCTAAAAGACTT-pY-3' DNA substrate at 111 uM measured after 15 mins by gel-based assay
T1 sequence (Q9NUW8 whole entry): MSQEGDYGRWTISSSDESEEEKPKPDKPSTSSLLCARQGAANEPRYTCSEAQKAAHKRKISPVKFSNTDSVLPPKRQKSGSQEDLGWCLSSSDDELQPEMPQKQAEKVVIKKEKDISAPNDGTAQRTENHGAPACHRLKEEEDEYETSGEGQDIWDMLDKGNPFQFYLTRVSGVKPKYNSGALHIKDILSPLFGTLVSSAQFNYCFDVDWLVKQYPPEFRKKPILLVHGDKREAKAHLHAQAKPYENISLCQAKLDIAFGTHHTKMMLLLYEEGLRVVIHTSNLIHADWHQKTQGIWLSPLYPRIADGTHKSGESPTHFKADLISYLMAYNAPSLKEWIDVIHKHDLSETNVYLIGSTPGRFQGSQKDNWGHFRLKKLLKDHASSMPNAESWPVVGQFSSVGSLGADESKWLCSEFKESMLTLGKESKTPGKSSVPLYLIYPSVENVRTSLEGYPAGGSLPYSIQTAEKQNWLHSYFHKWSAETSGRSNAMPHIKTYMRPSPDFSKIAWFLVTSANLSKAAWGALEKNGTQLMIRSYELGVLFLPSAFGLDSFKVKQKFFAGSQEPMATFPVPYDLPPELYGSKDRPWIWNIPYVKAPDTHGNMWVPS

[2] = biological target: T1, Tyrosyl-DNA phosphodiesterase 1; assay: Inhibition of recombinant TDP1 (unknown origin) assessed as substrate cleavage using 5'-Cy5-GATCTAAAAGACTT-pY-3' DNA substrate measured after 15 mins by gel-based assay
HCT-116 [3] = assay: Radiosensitizing activity in human HCT-116 cells assessed as induction of 2 GY ionizing radiation (IR) induced cell killing effect; format: functional, cell-based
HCT-116 [4] = assay: Cytotoxicity against human HCT116 cells assessed as cell killing at 0.1 uM relative to control; format: functional
HCT-116 [5] = assay: Radiosensitizing activity in human HCT-116 cells assessed as sensitization of 2 GY ionizing radiation (IR) induced cell killing effect at 0.2 uM relative to control; format: functional
HCT-116 [6] = assay: Cytotoxicity against human HCT116 cells assessed as cell killing at 0.2 uM relative to control; format: functional
HCT-116 [7] = assay: Synergistic cytotoxicity against human HCT116 cells assessed as combination index at 0.5 uM incubated for 48 hrs in presence of 2GY ionizing radiation (IR); format: functional

Structure (SMILES)	inhibition [1]	IC50 [2]	further results
COc1cc2c(cc1OCCn1ccnc1)c(=O)n(CCN(C)C)c1c3cc4c(cc3ccc21)OCO4	inactive	–	–
COc1cc2c(=O)n(CCN(C)C)c3c4cc5c(cc4ccc3c2cc1OCCCN1CCSCC1)OCO5	–	5.7 µM	Activity (HCT-116 [3]): Active; Activity (HCT-116 [4]): 19%; Activity (HCT-116 [5]): 93%; Activity (HCT-116 [6]): 73%; CI (HCT-116 [7]): <0.3
CCN(CC)C(=O)COc1cc2c(cc1OC)c(=O)n(CCN(C)C)c1c3cc4c(cc3ccc21)OCO4	inactive	–	–
COc1cc2c(=O)n(CCN(C)C)c3c4cc5c(cc4ccc3c2cc1OCC(=O)N1CCOCC1)OCO5	inactive	–	–
CCN(CC)CCOc1cc2c(cc1OC)c(=O)n(CCN(C)C)c1c3cc4c(cc3ccc21)OCO4	–	43 µM	–
CCN(CC)CCOc1cc2c(=O)n(CCN(C)C)c3c4cc5c(cc4ccc3c2cc1OC)OCO5	–	20 µM	–
COc1cc2c(=O)n(CCN(C)C)c3c4cc5c(cc4ccc3c2cc1OCC(=O)N(C)C)OCO5	inactive	–	–
COc1cc2c(=O)n(CCN(C)C)c3c4cc5c(cc4ccc3c2cc1OCCCN1CCCCC1)OCO5	–	6.9 µM	–
COc1cc2c(=O)n(CCN(C)C)c3c4cc5c(cc4ccc3c2cc1OCCc1ccccc1)OCO5	inactive	–	–
COc1cc2c(cc1OCCCn1ccnc1)c(=O)n(CCN(C)C)c1c3cc4c(cc3ccc21)OCO4	inactive	–	–
COc1cc2c(cc1OCCCN1CCCCC1)c(=O)n(CCN(C)C)c1c3cc4c(cc3ccc21)OCO4	–	7.4 µM	Activity (HCT-116 [3]): Active
COc1cc2c(=O)n(CCN(C)C)c3c4cc5c(cc4ccc3c2cc1OCCN1CCCCC1)OCO5	–	22 µM	–
COc1cc2c(=O)n(CCN(C)C)c3c4cc5c(cc4ccc3c2cc1OCCN1CCSCC1)OCO5	inactive	–	–
COc1cc2c(=O)n(CCN(C)C)c3c4cc5c(cc4ccc3c2cc1OCCCn1ccnc1)OCO5	inactive	–	–
CCN(CC)CCCOc1cc2c(cc1OC)c(=O)n(CCN(C)C)c1c3cc4c(cc3ccc21)OCO4	–	10 µM	Activity (HCT-116 [3]): Active
COc1cc2c(=O)n(CCN(C)C)c3c4cc5c(cc4ccc3c2cc1OCCN1CCCC1)OCO5	inactive	–	–
CCN(CC)CCCOc1cc2c(=O)n(CCN(C)C)c3c4cc5c(cc4ccc3c2cc1OC)OCO5	–	6.4 µM	–
COc1cc2c(cc1OCCN1CCOCC1)c(=O)n(CCN(C)C)c1c3cc4c(cc3ccc21)OCO4	inactive	–	–
COc1cc2c(=O)n(CCN(C)C)c3c4cc5c(cc4ccc3c2cc1OCCCN1CCCC1)OCO5	–	3.6 µM	Activity (HCT-116 [3]): Active
COc1cc2c(=O)n(CCN(C)C)c3c4cc5c(cc4ccc3c2cc1OCCCc1ccccc1)OCO5	inactive	–	–
COc1cc2c(cc1OCCCN(C)C)c(=O)n(CCN(C)C)c1c3cc4c(cc3ccc21)OCO4	–	9.3 µM	Activity (HCT-116 [3]): Active
COc1cc2c(=O)n(CCN(C)C)c3c4cc5c(cc4ccc3c2cc1OCCn1ccnc1)OCO5	–	33 µM	–
COc1cc2c(cc1OCCCN1CCN(C)CC1)c(=O)n(CCN(C)C)c1c3cc4c(cc3ccc21)OCO4	–	31 µM	–

Continued, in another order:

inhibition [1]	IC50 [2]	Structure (SMILES)	further results
–	1.6 µM	COc1cc2c(=O)n(CCN(C)C)c3c4cc5c(cc4ccc3c2cc1OCCCNC12CC3CC(CC(C3)C1)C2)OCO5	Activity (HCT-116 [3]): Active
–	4.7 µM	COc1cc2c(=O)n(CCN(C)C)c3c4cc5c(cc4ccc3c2cc1OCCCN(C)C)OCO5	Activity (HCT-116 [3]): Active
–	5.4 µM	COc1cc2c(cc1OCCCN1CCCC1)c(=O)n(CCN(C)C)c1c3cc4c(cc3ccc21)OCO4	Activity (HCT-116 [3]): Active
–	6 µM	COc1cc2c(=O)n(CCN(C)C)c3c4cc5c(cc4ccc3c2cc1OCCN1CCN(C)CC1)OCO5	Activity (HCT-116 [3]): Active
–	29 µM	COc1cc2c(cc1OCCN1CCCC1)c(=O)n(CCN(C)C)c1c3cc4c(cc3ccc21)OCO4	–
–	16 µM	COc1cc2c(cc1OCCN1CCCCC1)c(=O)n(CCN(C)C)c1c3cc4c(cc3ccc21)OCO4	–
–	17 µM	COc1cc2c(cc1OCCCN1CCOCC1)c(=O)n(CCN(C)C)c1c3cc4c(cc3ccc21)OCO4	–
–	7.8 µM	COc1cc2c(=O)n(CCN(C)C)c3c4cc5c(cc4ccc3c2cc1OCCCN1CCN(C)CC1)OCO5	Activity (HCT-116 [3]): Active
–	59 µM	COc1cc2c(cc1OCCN(C)C)c(=O)n(CCN(C)C)c1c3cc4c(cc3ccc21)OCO4	–
–	46 µM	COc1cc2c(cc1OCCN1CCN(C)CC1)c(=O)n(CCN(C)C)c1c3cc4c(cc3ccc21)OCO4	–
–	31 µM	CCCCN(CCCC)CCCOc1cc2c(cc1OC)c(=O)n(CCN(C)C)c1c3cc4c(cc3ccc21)OCO4	–
–	12 µM	COc1cc2c(=O)n(CCN(C)C)c3c4cc5c(cc4ccc3c2cc1OCCN(C)C)OCO5	–
inactive	–	COc1cc2c(=O)n(CCN(C)C)c3c4cc5c(cc4ccc3c2cc1OCCCN1CCOCC1)OCO5	–
–	23 µM	CCCCN(CCCC)CCOc1cc2c(cc1OC)c(=O)n(CCN(C)C)c1c3cc4c(cc3ccc21)OCO4	–
